Read-outs that look alike come from different tables or passages of the source. Non-standard residues stand in square brackets, D forms with d. Residues, ends and D or L forms follow the SMILES beside them. Phe(ol) = N[C@H](CO)Cc1ccccc1; Aib = CC(C)(N)C(=O)O
Legend:
[1] = system: Trichomonas vaginalis G3 trophozoites; details: for T.vaginalis_Absorbance_Rep1: replicate 1, raw absorbance; for T.vaginalis_Absorbance_Rep2: replicate 2, raw absorbance
[2] = system: nontumorigenic neonatal foreskin fibroblast (NFF) cell line
[3] = replicate 1, parasite screen at 1 µg/mL
[4] = replicate 2, parasite screen at 1 µg/mL
[5] = HTS single concentration, parasite screen 1 µg/mL, replicate 1
[6] = HTS single concentration, parasite screen 1 µg/mL, replicate 2
[7] = NFF_NS1 screen 5 µg/mL, single concentration
[8] = HTS, parasite screen at 1 µg/mL, replicate 1
[9] = HTS, parasite screen at 1 µg/mL
[10] = HTS, parasite screen at 1 µg/mL, replicate 2
[11] = parasite screen at 1 µg/mL, replicate 1
[12] = parasite screen at 1 µg/mL, replicate 2
[13] = NFF_NS1 screen at 5 µg/mL, NFF cells
[14] = NFF fibroblast screen at 5 µg/mL, A = active, I = inactive

CCCCC(C)C=C(C)C=C(C)C(=O)NC1=CC(O)(C=CC=CC=CC(=O)NC2=C(O)CCC2=O)C2OC2C1=O (stereo not drawn) [BIA-M1905]
T.vaginalis_%inb_Rep1 [1, 3]: 10.60%
T.vaginalis_%inb_Rep2 [1, 4]: 12.76%
NFF_Activity ([2]; NFF cells, screen at 5 µg/mL): I (otherwise these were reported as inactive (I))

C=C1CCOC2(C(O)C(C)(O)CO)NC(=O)C1(O)NC2=O (stereo not drawn) [BIA-B1367]
T.vaginalis_%inb_Rep1 [1, 5]: 15.02%
T.vaginalis_%inb_Rep2 [1, 6]: 15.26%
NFF_Activity [2, 7]: I (otherwise these were reported as inactive (I))

CC[C@H](C)[C@H]1O[C@]2(C=C[C@@H]1C)C[C@@H]1C[C@@H](C/C=C(\C)[C@@H](O[C@H]3C[C@H](OC)[C@@H](O[C@H]4C[C@H](OC)[C@H](NC(C)=O)[C@H](C)O4)[C@H](C)O3)[C@@H](C)/C=C/C=C3\CO[C@@H]4[C@H](O)C(C)=C[C@@H](C(=O)O1)[C@]34O)O2 [Eprinomectin B1a]
T.vaginalis_%inb_Rep1 [1, 8]: 13.46%
T.vaginalis_Absorbance_Rep1 [1, 9]: 0.959
T.vaginalis_%inb_Rep2 [1, 10]: 14.17%
T.vaginalis_Absorbance_Rep2 [1, 9]: 0.816
NFF_Activity ([2]; NFF_NS1 screen at 5 µg/mL): I (otherwise these were reported as inactive (I))

CC(=O)NCCc1c[nH]c2ccccc12 [BIA-A1732]
T.vaginalis_%inb_Rep1 [1, 5]: 14.43%
T.vaginalis_%inb_Rep2 [1, 6]: 33.62%
NFF_Activity [2, 7]: I (otherwise these were reported as inactive (I))

Cc1cc(O)c(O)c2oc(=O)c3c(O)cc(O)cc3c12 [BIA-H1558]
T.vaginalis_%inb_Rep1 [1, 3]: 10.09%
T.vaginalis_%inb_Rep2 [1, 4]: 9.24%
NFF_Activity ([2]; NFF cells, screen at 5 µg/mL): I (otherwise these were reported as inactive (I))

CO[C@H]1C[C@H](O[C@H]2[C@H](C)O[C@@H](O[C@@H]3/C(C)=C/C[C@@H]4C[C@@H](C[C@]5(CC[C@H](C)[C@@H](C(C)C)O5)O4)OC(=O)[C@@H]4C=C(C)[C@@H](O)[C@H]5OC/C(=C\C=C\[C@@H]3C)[C@]54O)C[C@@H]2OC)O[C@@H](C)[C@@H]1O [BIA-I1117]
T.vaginalis_%inb_Rep1 [1, 3]: 14.71%
T.vaginalis_%inb_Rep2 [1, 4]: 14.82%
NFF_Activity ([2]; NFF cells, screen at 5 µg/mL): I (otherwise these were reported as inactive (I))

CC[C@H](C)[C@@H]1NC(=O)C(C(C)=O)=C1O [BIA-T1277]
T.vaginalis_%inb_Rep1 [1, 11]: 8.60%
T.vaginalis_%inb_Rep2 [1, 12]: 14.81%
NFF_Activity [2, 13]: I (otherwise these were reported as inactive (I))

COc1cc2c(c3oc4cccc(O)c4c(=O)c13)[C@@H]1C=CO[C@@H]1O2 [BIA-S1213]
T.vaginalis_%inb_Rep1 [1, 11]: 10.12%
T.vaginalis_%inb_Rep2 [1, 12]: 14.32%
NFF_Activity [2, 13]: I (otherwise these were reported as inactive (I))

CC(=O)NC(C)(C)C(=O)N1CCC[C@H]1C(=O)NC(C)(C)C(=O)N[C@@H](C)C(=O)NC(C)(C)C(=O)N[C@@H](C)C(=O)N[C@@H](CCC(N)=O)C(=O)NC(C)(C)C(=O)N[C@H](C(=O)NC(C)(C)C(=O)NCC(=O)N[C@@H](CC(C)C)C(=O)NC(C)(C)C(=O)N1CCC[C@H]1C(=O)N[C@H](C(=O)NC(C)(C)C(=O)NC(C)(C)C(=O)N[C@@H](CCC(N)=O)C(=O)N[C@@H](CCC(N)=O)C(=O)N[C@H](CO)Cc1ccccc1)C(C)C)C(C)C [BIA-A1543] (Ac-[Aib]P[Aib]A[Aib]AQ[Aib]V[Aib]GL[Aib]PV[Aib][Aib]QQ[Phe(ol)])
T.vaginalis_%inb_Rep1 [1, 5]: 13.73%
T.vaginalis_%inb_Rep2 [1, 6]: 13.74%
NFF_Activity [2, 7]: I (otherwise these were reported as inactive (I))

Cc1c2c(c(O)c3c(O)cccc13)C(=O)[C@]1(O)C(=O)C(C(N)=O)=C(O)[C@@H](N(C)C)[C@@H]1C2.Cl [BIA-A1340]
T.vaginalis_%inb_Rep1 [1, 5]: 6.73%
T.vaginalis_%inb_Rep2 [1, 6]: 9.54%
NFF_Activity [2, 7]: I (otherwise these were reported as inactive (I))

C=CCNC1=C2CC(C)CC(OC)C(O)C(C)C=C(C)C(OC(N)=O)C(OC)C=CC=C(C)C(=O)NC(=CC1=O)C2=O (stereo not drawn) [BIA-A1923]
T.vaginalis_%inb_Rep1 [1, 5]: 11.27%
T.vaginalis_%inb_Rep2 [1, 6]: 34.13%
NFF_Activity [2, 7]: I (otherwise these were reported as inactive (I))

Cc1cc(OC(=O)c2c(C)cc(O)cc2O)cc(O)c1C(=O)O [BIA-L1669]
T.vaginalis_%inb_Rep1 [1, 3]: 11.51%
T.vaginalis_%inb_Rep2 [1, 4]: 3.53%
NFF_Activity ([2]; NFF cells, screen at 5 µg/mL): I (otherwise these were reported as inactive (I))

C[C@@H]1CCC[C@H](O)CCC/C=C/c2cc(O)cc(O)c2C(=O)O1 [Zearalenol, beta-]
T.vaginalis_%inb_Rep1 [1, 8]: 9.54%
T.vaginalis_%inb_Rep2 [1, 10]: 15.05%
NFF_Activity [2, 14]: I (otherwise these were reported as inactive (I))

CCOC(=O)[C@H](Cc1ccccc1)NC(=O)c1cc(Cl)c2c(c1O)C(=O)O[C@H](C)C2 [Ochratoxin C]
T.vaginalis_%inb_Rep1 ([1]; HTS replicate 1, parasite screen 1 µg/mL): 15.37%
T.vaginalis_%inb_Rep2 ([1]; HTS replicate 2, parasite screen 1 µg/mL): 4.81%
NFF_Activity ([2]; NFF fibroblasts, single concentration 5 µg/mL): I (otherwise these were reported as inactive (I))

Viridicatumtoxin
T.vaginalis_%inb_Rep1 [1, 8]: 8.70%
T.vaginalis_%inb_Rep2 [1, 10]: 2.74%
NFF_Activity [2, 14]: I (otherwise these were reported as inactive (I))

C[C@@H](O)[C@H]1C(=O)N2C(C(=O)[O-])=C(SC3Cn4cnc[n+]4C3)[C@H](C)[C@H]12 (stereo partly drawn) [BIA-B1663]
T.vaginalis_%inb_Rep1 [1, 5]: 15.29%
T.vaginalis_%inb_Rep2 [1, 6]: 20.32%
NFF_Activity [2, 7]: I (otherwise these were reported as inactive (I))

CC1=C(O)C(=O)[C@@H]2O[C@@H]2C1=O [BIA-T1695]
T.vaginalis_%inb_Rep1 [1, 11]: 9.91%
T.vaginalis_%inb_Rep2 [1, 12]: 12.25%
NFF_Activity [2, 13]: A (active (A) compounds having >25% inhibitory activity)

CC(=O)NCCc1cnc[nH]1 [BIA-A1737]
T.vaginalis_%inb_Rep1 [1, 5]: 14.86%
T.vaginalis_%inb_Rep2 [1, 6]: 38.90%
NFF_Activity [2, 7]: I (otherwise these were reported as inactive (I))

CS(=O)(=O)c1ccc([C@@H](O)[C@H](N)CF)cc1.Cl [Florfenicol amine HCl]
T.vaginalis_%inb_Rep1 [1, 8]: 15.67%
T.vaginalis_Absorbance_Rep1 [1, 9]: 1
T.vaginalis_%inb_Rep2 [1, 10]: 15.11%
T.vaginalis_Absorbance_Rep2 [1, 9]: 0.829
NFF_Activity ([2]; NFF_NS1 screen at 5 µg/mL): I (otherwise these were reported as inactive (I))

Cc1cc(=O)c(O)cc2c1C[C@@H]1CC(C)(C)/C=C/C[C@@]3(C)Oc4cc(O)c(=O)cc(C)c4C[C@@H]3C[C@@H](O)[C@]1(C)O2 [Eupenifeldin]
T.vaginalis_%inb_Rep1 [1, 8]: 14.05%
T.vaginalis_Absorbance_Rep1 [1, 9]: 0.97
T.vaginalis_%inb_Rep2 [1, 10]: 13.74%
T.vaginalis_Absorbance_Rep2 [1, 9]: 0.81
NFF_Activity ([2]; NFF_NS1 screen at 5 µg/mL): A (active (A) compounds having >25% inhibitory activity)

COc1cc2c(c3oc(=O)c4c(c13)CCOC4=O)[C@@H]1CCO[C@@H]1O2 [BIA-A1235]
T.vaginalis_%inb_Rep1 [1, 5]: 12.33%
T.vaginalis_%inb_Rep2 [1, 6]: 13.81%
NFF_Activity [2, 7]: I (otherwise these were reported as inactive (I))

OCC1=CC(NC2CC(CO)C(OC3OC(CO)C(O)C(O)C3O)C(O)C2O)C(O)C(O)C1O (stereo not drawn) [Validamycin A]
T.vaginalis_%inb_Rep1 [1, 8]: 14.26%
T.vaginalis_%inb_Rep2 [1, 10]: 19.07%
NFF_Activity [2, 14]: I (otherwise these were reported as inactive (I))

COc1cc(O)c2c(c1)C=CCC(O)C(O)C(=O)C=CCC(C)OC2=O (stereo not drawn) [BIA-L1160]
T.vaginalis_%inb_Rep1 [1, 3]: 12.27%
T.vaginalis_%inb_Rep2 [1, 4]: 12.76%
NFF_Activity ([2]; NFF cells, screen at 5 µg/mL): I (otherwise these were reported as inactive (I))

CC1CCCC(O)CCCCCc2cc(O)cc(O)c2C(=O)O1 (stereo not drawn) [Zearalanol, alpha-]
T.vaginalis_%inb_Rep1 [1, 8]: 6.97%
T.vaginalis_%inb_Rep2 [1, 10]: 13.04%
NFF_Activity [2, 14]: I (otherwise these were reported as inactive (I))

COC1C=CC=C(C)C(=O)NC2=CC(=O)C=C(C2=O)C(OC)C(C)CC(OC)C(OC)C(C)C=C(C)C1OC(N)=O (stereo not drawn) [BIA-H1036]
T.vaginalis_%inb_Rep1 [1, 3]: 12.63%
T.vaginalis_%inb_Rep2 [1, 4]: 12.64%
NFF_Activity ([2]; NFF cells, screen at 5 µg/mL): I (otherwise these were reported as inactive (I))

From paper PMC7897990, “TriTOX: A novel Trichomonas vaginalis assay platform for high-throughput screening of compound libraries” (International Journal for Parasitology: Drugs and Drug …, 2021)
